Test system: post-menopausal women
Test: Hot Flush Weekly Weighted Score, dose-finding study
Assay type: in vivo
Protocol: Further, the terms “Hot Flush Weekly Weighted Score”, as used herein, corresponds to a score taking into account frequency and severity which is calculated by using the severity score (as calculated above): [(1× No. of mild VMS)+(2× No. of moderate VMS)+(3× No. of severe VMS)] during a 7 day period.
Such a weighted score was for example used by Notelovitz et al. (“Initial 17β-Estradiol Dose for Treating Vasomotor Symptoms”; Obstetrics and Gynaecology, Vol. 95(5), May 2000, p. 726-731). This score was used to generate the data included in Example 1 further below, under section A. c) “Hot Flush Weekly Weighted Score”.

C[C@]12CC[C@@H]3c4ccc(O)cc4CC[C@H]3[C@@H]1[C@@H](O)[C@@H](O)[C@@H]2O [E4, 1,3,5 (10)-estratrien-3,15alpha,16alpha,17beta-tetrol]
LS adjusted mean change from baseline in Hot Flush Weekly Weighted Score (2.5 mg E4, week 4): −75.37
LS adjusted mean change from baseline in Hot Flush Weekly Weighted Score (2.5 mg E4, week 12): −89.86
Mean change from baseline in Hot Flush Weekly Weighted Score (2.5 mg E4 QD per os, week 0): 2.4151
Mean change from baseline in Hot Flush Weekly Weighted Score (2.5 mg E4 QD per os, week 1): −40.805
Relative change (% from baseline) in Hot Flush Weekly Weighted Score, mean (2.5 mg E4 QD per os, week 1): −22%
Mean change from baseline in Hot Flush Weekly Weighted Score (2.5 mg E4 QD per os, week 2): −58.6163
Relative change (% from baseline) in Hot Flush Weekly Weighted Score, mean (2.5 mg E4 QD per os, week 2): −32%
Mean change from baseline in Hot Flush Weekly Weighted Score (2.5 mg E4 QD per os, week 3): −74.8798
Relative change (% from baseline) in Hot Flush Weekly Weighted Score, mean (2.5 mg E4 QD per os, week 3): −43%
Mean change from baseline in Hot Flush Weekly Weighted Score (2.5 mg E4 QD per os, week 4): −82.75
Relative change (% from baseline) in Hot Flush Weekly Weighted Score, mean (2.5 mg E4 QD per os, week 4): −47%
Mean change from baseline in Hot Flush Weekly Weighted Score (2.5 mg E4 QD per os, week 5): −84.6062
Relative change (% from baseline) in Hot Flush Weekly Weighted Score, mean (2.5 mg E4 QD per os, week 5): −48%
Mean change from baseline in Hot Flush Weekly Weighted Score (2.5 mg E4 QD per os, week 6): −89.9842
Relative change (% from baseline) in Hot Flush Weekly Weighted Score, mean (2.5 mg E4 QD per os, week 6): −51%
Mean change from baseline in Hot Flush Weekly Weighted Score (2.5 mg E4 QD per os, week 7): −94.2468
Relative change (% from baseline) in Hot Flush Weekly Weighted Score, mean (2.5 mg E4 QD per os, week 7): −53%
Mean change from baseline in Hot Flush Weekly Weighted Score (2.5 mg E4 QD per os, week 8): −97.1084
Relative change (% from baseline) in Hot Flush Weekly Weighted Score, mean (2.5 mg E4 QD per os, week 8): −55%
Mean change from baseline in Hot Flush Weekly Weighted Score (2.5 mg E4 QD per os, week 9): −101.429
Relative change (% from baseline) in Hot Flush Weekly Weighted Score, mean (2.5 mg E4 QD per os, week 9): −57%
Mean change from baseline in Hot Flush Weekly Weighted Score (2.5 mg E4 QD per os, week 10): −100.18
Relative change (% from baseline) in Hot Flush Weekly Weighted Score, mean (2.5 mg E4 QD per os, week 10): −57%
Mean change from baseline in Hot Flush Weekly Weighted Score (2.5 mg E4 QD per os, week 11): −97.6016
Relative change (% from baseline) in Hot Flush Weekly Weighted Score, mean (2.5 mg E4 QD per os, week 11): −56%
Mean change from baseline in Hot Flush Weekly Weighted Score (2.5 mg E4 QD per os, week 12): −98.5424
Relative change (% from baseline) in Hot Flush Weekly Weighted Score, mean (2.5 mg E4 QD per os, week 12): −57%
Difference with placebo, LS adjusted mean, absolute change in Hot Flush Weekly Weighted Score (2.5 mg E4 vs placebo, week 4): 2.897
Difference with placebo, LS adjusted mean, absolute change in Hot Flush Weekly Weighted Score (2.5 mg E4 vs placebo, week 12): 14.83
Differences with placebo, relative change in weekly weighted score, p_value (2.5 mg vs 0 mg, week 4): 1.0000
Differences with placebo, relative change in weekly weighted score, p_value (2.5 mg vs 0 mg, week 12): 0.6744
Relative change (% from baseline) in weekly weighted score, LS adjusted mean (2.5 mg, Week 12): −0.5795
Relative change (% from baseline) in weekly weighted score, LS adjusted mean (2.5 mg, week 4): −0.474
LS adjusted mean change from baseline in Hot Flush Weekly Weighted Score (5 mg E4, week 4): −66.88
LS adjusted mean change from baseline in Hot Flush Weekly Weighted Score (5 mg E4, week 12): −95.92
Mean change from baseline in Hot Flush Weekly Weighted Score (5 mg E4 QD per os, week 0): 1.8297
Mean change from baseline in Hot Flush Weekly Weighted Score (5 mg E4 QD per os, week 1): −33.7092
Relative change (% from baseline) in Hot Flush Weekly Weighted Score, mean (5 mg E4 QD per os, week 1): −22%
Mean change from baseline in Hot Flush Weekly Weighted Score (5 mg E4 QD per os, week 2): −49.1319
Relative change (% from baseline) in Hot Flush Weekly Weighted Score, mean (5 mg E4 QD per os, week 2): −32%
Mean change from baseline in Hot Flush Weekly Weighted Score (5 mg E4 QD per os, week 3): −56.9697
Relative change (% from baseline) in Hot Flush Weekly Weighted Score, mean (5 mg E4 QD per os, week 3): −37%
Mean change from baseline in Hot Flush Weekly Weighted Score (5 mg E4 QD per os, week 4): −64.8344
Relative change (% from baseline) in Hot Flush Weekly Weighted Score, mean (5 mg E4 QD per os, week 4): −43%
Mean change from baseline in Hot Flush Weekly Weighted Score (5 mg E4 QD per os, week 5): −71.6181
Relative change (% from baseline) in Hot Flush Weekly Weighted Score, mean (5 mg E4 QD per os, week 5): −46%
Mean change from baseline in Hot Flush Weekly Weighted Score (5 mg E4 QD per os, week 6): −88.2337
Relative change (% from baseline) in Hot Flush Weekly Weighted Score, mean (5 mg E4 QD per os, week 6): −56%
Mean change from baseline in Hot Flush Weekly Weighted Score (5 mg E4 QD per os, week 7): −88.2989
Relative change (% from baseline) in Hot Flush Weekly Weighted Score, mean (5 mg E4 QD per os, week 7): −56%
Mean change from baseline in Hot Flush Weekly Weighted Score (5 mg E4 QD per os, week 8): −89.2039
Relative change (% from baseline) in Hot Flush Weekly Weighted Score, mean (5 mg E4 QD per os, week 8): −56%
Mean change from baseline in Hot Flush Weekly Weighted Score (5 mg E4 QD per os, week 9): −90.923
Relative change (% from baseline) in Hot Flush Weekly Weighted Score, mean (5 mg E4 QD per os, week 9): −58%
Mean change from baseline in Hot Flush Weekly Weighted Score (5 mg E4 QD per os, week 10): −91.4798
Relative change (% from baseline) in Hot Flush Weekly Weighted Score, mean (5 mg E4 QD per os, week 10): −59%
Mean change from baseline in Hot Flush Weekly Weighted Score (5 mg E4 QD per os, week 11): −95.8365
Relative change (% from baseline) in Hot Flush Weekly Weighted Score, mean (5 mg E4 QD per os, week 11): −61%
Mean change from baseline in Hot Flush Weekly Weighted Score (5 mg E4 QD per os, week 12): −93.5117
Relative change (% from baseline) in Hot Flush Weekly Weighted Score, mean (5 mg E4 QD per os, week 12): −60%
Difference with placebo, LS adjusted mean, absolute change in Hot Flush Weekly Weighted Score (5 mg E4 vs placebo, week 4): 11.39
Difference with placebo, LS adjusted mean, absolute change in Hot Flush Weekly Weighted Score (5 mg E4 vs placebo, week 12): 8.767
Differences with placebo, relative change in weekly weighted score, p_value (5.0 mg vs 0 mg, week 4): 0.8833
Differences with placebo, relative change in weekly weighted score, p_value (5.0 mg vs 0 mg, week 12): 0.8871
Relative change (% from baseline) in weekly weighted score, LS adjusted mean (5 mg, Week 12): −0.5993
Relative change (% from baseline) in weekly weighted score, LS adjusted mean (5 mg, week 4): −0.4262
LS adjusted mean change from baseline in Hot Flush Weekly Weighted Score (10 mg E4, week 4): −85.56
LS adjusted mean change from baseline in Hot Flush Weekly Weighted Score (10 mg E4, week 12): −109.8
Mean change from baseline in Hot Flush Weekly Weighted Score (10 mg E4 QD per os, week 0): 2.3773
Mean change from baseline in Hot Flush Weekly Weighted Score (10 mg E4 QD per os, week 1): −31.4591
Relative change (% from baseline) in Hot Flush Weekly Weighted Score, mean (10 mg E4 QD per os, week 1): −20%
Mean change from baseline in Hot Flush Weekly Weighted Score (10 mg E4 QD per os, week 2): −54.0849
Relative change (% from baseline) in Hot Flush Weekly Weighted Score, mean (10 mg E4 QD per os, week 2): −35%
Mean change from baseline in Hot Flush Weekly Weighted Score (10 mg E4 QD per os, week 3): −73.5189
Relative change (% from baseline) in Hot Flush Weekly Weighted Score, mean (10 mg E4 QD per os, week 3): −47%
Mean change from baseline in Hot Flush Weekly Weighted Score (10 mg E4 QD per os, week 4): −87.2673
Relative change (% from baseline) in Hot Flush Weekly Weighted Score, mean (10 mg E4 QD per os, week 4): −54%
Mean change from baseline in Hot Flush Weekly Weighted Score (10 mg E4 QD per os, week 5): −93.4648
Relative change (% from baseline) in Hot Flush Weekly Weighted Score, mean (10 mg E4 QD per os, week 5): −58%
Mean change from baseline in Hot Flush Weekly Weighted Score (10 mg E4 QD per os, week 6): −101.646
Relative change (% from baseline) in Hot Flush Weekly Weighted Score, mean (10 mg E4 QD per os, week 6): −64%
Mean change from baseline in Hot Flush Weekly Weighted Score (10 mg E4 QD per os, week 7): −103.024
Relative change (% from baseline) in Hot Flush Weekly Weighted Score, mean (10 mg E4 QD per os, week 7): −64%
Mean change from baseline in Hot Flush Weekly Weighted Score (10 mg E4 QD per os, week 8): −104.835
Relative change (% from baseline) in Hot Flush Weekly Weighted Score, mean (10 mg E4 QD per os, week 8): −66%
Mean change from baseline in Hot Flush Weekly Weighted Score (10 mg E4 QD per os, week 9): −107.578

Reference: patent US11484539B2, “Compounds and their uses for alleviating menopause-associated symptoms” (Estetra SPRL, priority 2018, dated 2022)
